# Experimental data as given in US12390537B2, “Compositions of polymeric microdevices and methods of use thereof in cancer immunotherapy” (Massachusetts Institute of Technology, priority 2020, dated 2025).
# Tests used:
# Assay type in all cases: in vivo, mice
# [1] = system: CXCL10 mRNA; test: qPCR of interferon-stimulated genes in B16F10 tumors; details: tumors at day 16; cGAMP-MPs single injection, cGAMP-S three injections
# Method: (§1) Mice bearing B16F10 tumors were treated with the following 4 experimental groups (n=8): untreated, 1×EPs, 3×cGAMP-S, and 1×cGAMP-S plus cGAMP-MPs, respectively (FIG. 4A). Tumors were collected at day 16 post tumor inoculation and cut into 50-100 mg small pieces in a 1.5 mL microcentrifuge tube. The tumors were lysed in radioimmunoprecipitation assay (RIPA) buffer (Sigma-Aldrich), homogenized, and centrifuged at 20130 rcf for 10 min. The protein content in the supernatant was quantified using a bicinchoninic acid protein assay kit (Thermo Fisher Scientific, MA, USA). Equal amounts of proteins (20 μg) were separated on a 4 to 15% gradient SDS-polyacrylamide gel (Bio-Rad, Hercules, CA) and electro-transferred to nitrocellulose membrane. The membranes were then blocked with 5% milk in tris-buffered saline supplemented with 0.05% Tween 20 and further incubated with GAPDH monoclonal antibody (Invitrogen, CA, cat. no. MA5-27912), phospho-TBK1/NAK (Ser172) (D52C2) Rabbit mAb (Cell Signaling Technology, cat. no. 5483S), or phospho-IRF-3 (S396) Rabbit mAb (Cell Signaling Technology, cat. no. 4947S) at 4° C. overnight. […]
# (§2) For q-PCR experiments, total RNAs were extracted from tumors by RNeasy Kit (Qiagen, Inc.) according to manufacturer's protocol. […] Samples were analyzed in triplicates.
# [2] = system: IRF7 mRNA; test: as above; details: tumors at day 16; cGAMP-MPs single injection, cGAMP-S three injections
# Method: as §1, §2
# [3] = system: apoptotic cells in B16F10 tumors; test: TUNEL staining of tumor sections; details: cGAMP-MPs single injection, cGAMP-S three injections
# Method: Tumor sections (5 μm) were fixed with 4% paraformaldehyde, blocked with 3% bovine serum albumin, and permeabilized with 0.1% Triton X-100 in PBS. The tumor sections were then incubated with anti-CD8 alpha antibody (1:200, Abcam, cat. no. ab217344) at 4° C. overnight and goat anti-rabbit IgG H&L (Alexa Fluor® 488) (1:1000, Abcam, cat. no. ab150077) secondary antibody at room temperature for 1 h. Apoptotic tumor cells were stained using a in situ cell death detection kit (Roche) according to the manufacturer's instructions. Images were acquired on a Nikon A1R Ultra-Fast Spectral Scanning Confocal Microscope (Shinagawa, Tokyo).
smiles,measurement,setting,value
"Nc1nc2c(ncn2[C@@H]2O[C@@H]3COP(=O)(O)O[C@H]4[C@@H](O)[C@H](n5cnc6c(N)ncnc65)O[C@@H]4COP(=O)(O)O[C@H]3[C@H]2O)c(=O)[nH]1 [cGAMP-S, 3′3′-cGAMP]","CXCL10 mRNA level, fold over untreated",[1],7.2 fold
same,"IRF7 mRNA level, fold over untreated",[2],66.5 fold
same,apoptotic cells (TUNEL),[3],greater abundance of apoptotic cells
